The text below walks through data of the RepoRT retention time repository (doi:10.1016/j.foodchem.2021.129757).

One data set in a line: RP, Waters ACQUITY UPLC HSS T3, 100 × 2.1 mm, 50 °C; A: water + 0.1% formic acid, pH 3; B: 30% methanol + 70% acetonitrile + 0.1% formic acid, pH 3; gradient (min/%B) 0/5 1/8 2/15 3/40 4/70 4.5/100 5/100 6.4/100 6.6/5 6.8/5 7/5. The settings on record: stereoisomer not certain.
Regarding `O=Cc1ccc(O)cc1` [4-Hydroxybenzaldehyde], the LC retention time stood at 3.28 min.

A short description of a further data set: RP, Agilent InfinityLab Poroshell 120 EC-C18, 100 × 3 mm, 2.7 µm, 25 °C, 0.4 mL/min, estimated dead time 1.1 min; A: water + 0.1% formic acid, pH 3; B: acetonitrile + 0.1% formic acid, pH 3; gradient (min/%B) 0/5 10/25 20/40 24/90 25/90 26/5 30/5. The settings on record: stereoisomer not certain.
Take `O=C(O)c1ccc(O)cc1O` [2,4-Dihydroxybenzoic acid]: the LC retention time was 6.36 min.
Same read-out and setting: the value for `COc1cc(CC(=O)O)ccc1O` [Homovanillic acid] was 6.83 min; that for `COc1cc(C=CC(=O)O)cc(OC)c1O` [Sinapic acid] was 9.78 min.

The nature of a further data set: RP, Waters ACQUITY UPLC BEH C18, 100 × 2.1 mm, 1.7 µm, 65 °C, 0.4 mL/min, estimated dead time 0.55 min; A: water + 0.1% formic acid, pH 3; B: 80% acetonitrile + 20% acetone + 0.1% formic acid, pH 3; gradient (min/%B) 0/0 5/100 5.5/0 6/0. The settings on record: stereoisomer not certain.
Consider `O=Cc1ccc(O)cc1` [4-Hydroxybenzaldehyde], for which the LC retention time was 1.92 min.
Still for that read-out and setting: then `COc1cc(C=CC(=O)O)cc(OC)c1O` [Sinapic acid], with 2.1 min.

Another data set in a line: RP, Phenomenex Kinetex EVO C18, 100 × 2.1 mm, 2.6 µm, 40 °C, 0.4 mL/min, estimated dead time 0.55 min; A: water + 0.2% formic acid; B: acetonitrile + 0.2% formic acid; gradient (min/%B) 0/5 0.5/5 7/95 8/95 8.5/5 12/5. The settings on record: stereoisomer not certain.
For the compound `O=Cc1ccc(O)cc1` [4-Hydroxybenzaldehyde], the LC retention time was 3.43 min.

The next data set in a line: RP, Agilent ZORBAX RRHD Eclipse Plus C18, 50 × 2.1 mm, 1.8 µm, 30 °C, 0.4 mL/min, estimated dead time 0.28 min; A: water + 0.1% formic acid, pH 3; B: acetonitrile + 0.1% formic acid, pH 3; gradient (min/%B) 0/1 5/10 8/25 9.1/99 10/99 12/99. The settings on record: stereoisomer not certain.
As to `O=C(O)Cc1ccc(O)c(O)c1` [3,4-Dihydroxyphenylacetic acid], the LC retention time was 1.47 min.
Still for that read-out and setting: the value for `O=C(O)c1ccc(O)cc1O` [2,4-Dihydroxybenzoic acid] was 3.99 min; that for `O=C(O)c1ccccc1` [Benzoic acid] was 7.28 min.
The same measure, in the same setting: the value for `COc1cc(CC(=O)O)ccc1O` [Homovanillic acid] was 2.83 min.
Still for that read-out and setting: the value for `O=Cc1ccc(O)cc1` [4-Hydroxybenzaldehyde] was 4.4 min; that for `O=C(O)c1cccc(O)c1O` [2,3-Dihydroxybenzoic acid] was 3.99 min.
Take `O=C(O)c1ccccc1O` [Salicylic acid]: the LC retention time was 8.16 min.
As for `COc1cc(C=CC(=O)O)cc(OC)c1O` [Sinapic acid], the LC retention time was 7.99 min.

The next data set is described as follows: RP, Merck LiChrospher RP-18, 250 × 4 mm, 5 µm, 35 °C, 0.3 mL/min, estimated dead time 6.7 min; A: water + 0.5% formic acid; B: acetonitrile + 0.5% formic acid; gradient (min/%B) 0/5 10/5 30/15 45/20 65/20 95/54 110/63 115/5 135/5. The settings on record: stereoisomer not certain.
Regarding `O=C(O)c1ccccc1` [Benzoic acid], the LC retention time is 71.8 min.
Regarding `O=C(O)c1ccccc1O` [Salicylic acid], the LC retention time was 81.6 min.
On the same count and under the same terms, then `O=C(CCc1ccc(O)cc1)c1c(O)cc(O)cc1OC1OC(CO)C(O)C(O)C1O` (centres undefined) [Phloridzin], with 81.1 min.

A further data set can be described thus: RP, 50 × 0.5 mm, 2.7 µm, 35 °C, 0.01 mL/min, estimated dead time 0.62 min; A: water + 0.1% formic acid, pH 3; B: acetonitrile + 0.1% formic acid, pH 3; gradient (min/%B) 0/5 12/95 14/95 16/5. The settings on record: stereoisomer not certain.
For the compound `COc1cc(CC(=O)O)ccc1O` [Homovanillic acid], the LC retention time was 3.03 min.
On the same count and under the same terms, the value for `COc1cc(C=CC(=O)O)cc(OC)c1O` [Sinapic acid] was 4.25 min.

Another data set in a line: RP, Agilent ZORBAX Eclipse XDB-C18, 100 × 2.1 mm, 1.8 µm, 50 °C, 0.4 mL/min, estimated dead time 0.55 min; A: water + 0.1% formic acid, pH 3; B: methanol + 0.1% formic acid, pH 3; gradient (min/%B) 0/2 10/100 14.5/100 14.51/2 16.5/2. The settings on record: stereoisomer not certain.
Take `O=C(O)Cc1ccc(O)c(O)c1` [3,4-Dihydroxyphenylacetic acid]: the LC retention time was 2.55 min.
Turning to `O=C(O)c1ccccc1` [Benzoic acid], the LC retention time was 5.17 min.
With `COc1cc(CC(=O)O)ccc1O` [Homovanillic acid], the LC retention time was 3.69 min.
Consider `O=Cc1ccc(O)cc1` [4-Hydroxybenzaldehyde], for which the LC retention time was 3.42 min.
On the same count and under the same terms, the value for `O=C(O)c1cccc(O)c1O` [2,3-Dihydroxybenzoic acid] was 3.5 min; that for `O=C(O)c1ccccc1O` [Salicylic acid] was 5.25 min; that for `COc1cc(C=CC(=O)O)cc(OC)c1O` [Sinapic acid] was 4.97 min.

A short description of another data set: RP, Waters ACQUITY UPLC BEH Shield RP18, 100 × 2.1 mm, 1.7 µm, 30 °C, 0.6 mL/min, estimated dead time 0.37 min; A: water + 0.1% formic acid, pH 3; B: acetonitrile + 0.1% formic acid, pH 3; gradient (min/%B) 0/0 2/0 7/10 22/95 22.1/0 26/0. The note with it: stereoisomer not certain.
On to `COc1cc(CC(=O)O)ccc1O` [Homovanillic acid], for which the LC retention time was 16 min.
Still for that read-out and setting: then `COc1cc(C=CC(=O)O)cc(OC)c1O` [Sinapic acid], with 12.5 min.

The nature of another data set: RP, Phenomenex Synergi Hydro-RP, 250 × 2 mm, 4 µm, 25 °C, 0.2 mL/min, estimated dead time 2.5 min; A: water + 0.1% formic acid, pH 3; B: acetonitrile + 0.1% formic acid, pH 3; gradient (min/%B) 0/0.5 7/0.5 12/12.5 25/16.3 47/35 48/65 50/65 50.1/0.5. The settings on record: stereoisomer not certain.
`O=C(O)Cc1ccc(O)c(O)c1` [3,4-Dihydroxyphenylacetic acid]: the LC retention time was 17 min.
On the same count and under the same terms, then `O=C(O)c1ccccc1` [Benzoic acid], with 35.5 min; and `O=C(O)c1ccccc1O` [Salicylic acid], with 37.4 min.
For `O=C(CCc1ccc(O)cc1)c1c(O)cc(O)cc1OC1OC(CO)C(O)C(O)C1O` (centres undefined) [Phloridzin], the LC retention time was 39.6 min.
The same measure, in the same setting: then `COc1cc(C=CC(=O)O)cc(OC)c1O` [Sinapic acid], with 33 min.

A further data set can be described thus: RP, Phenomenex Luna Omega Polar C18, 100 × 2.1 mm, 1.6 µm, 40 °C, 0.5 mL/min, estimated dead time 0.44 min; A: water + 0.1% formic acid + 10 mM ammonium formate; B: acetonitrile; gradient (min/%B) 0/5 8/20 10/100 12/100 12.1/5 14/5. The note with it: stereoisomer not certain.
On to `COc1cc(CC(=O)O)ccc1O` [Homovanillic acid], for which the LC retention time was 4.17 min.
On to `COc1cc(C=CC(=O)O)cc(OC)c1O` [Sinapic acid], for which the LC retention time is 7.22 min.

A further data set can be described thus: RP, Phenomenex Luna Omega Polar C18, 100 × 2.1 mm, 1.6 µm, 40 °C, 0.5 mL/min, estimated dead time 0.44 min; A: water + 0.5% formic acid; B: acetonitrile + 0.5% formic acid; gradient (min/%B) 0/5 3/50 3.1/100 5/100 5.1/5 7/5. The settings on record: stereoisomer not certain.
As to `COc1cc(C=CC(=O)O)cc(OC)c1O` [Sinapic acid], the LC retention time is 2.53 min.

Another data set is described as follows: Other, Phenomenex Kinetex PFP, 100 × 4.6 mm, 5 µm, 45 °C, 0.6 mL/min, estimated dead time 1.8 min; A: water + 0.1% trifluoroacetic acid, pH 2; B: methanol; gradient (min/%B) 0/40 20/72 21/40. The note with it: stereoisomer not certain.
Turning to `O=C(O)Cc1ccc(O)c(O)c1` [3,4-Dihydroxyphenylacetic acid], the LC retention time was 3.74 min.
Same read-out and setting: the value for `O=C(O)c1ccccc1` [Benzoic acid] was 7.84 min.
